Measurements from PubChem BioAssay (NCI).
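The compound was tested at five concentrations on cells cultured in 96-well plates, with a 48-hour exposure period. TGI is the concentration that stops growth completely.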

Experiments:
Experiment in all cases: NCI anticancer screen, dose series, 48 h
UACC-62 melanoma = tested on: UACC-62 melanoma
OVCAR-3 ovarian = tested on: OVCAR-3 ovarian
SW-620 colon = tested on: SW-620 colon
U251 CNS = tested on: U251 CNS
SR leukemia = tested on: SR leukemia
UO-31 renal = tested on: UO-31 renal
TK-10 renal = tested on: TK-10 renal
HOP-92 NSCLC = tested on: HOP-92 NSCLC
MDA-MB-231 breast = tested on: MDA-MB-231 breast
NCI/ADR-RES ovarian = tested on: NCI/ADR-RES ovarian
ACHN renal = tested on: ACHN renal
MALME-3M melanoma = tested on: MALME-3M melanoma
DU-145 prostate = tested on: DU-145 prostate
MCF7 breast = tested on: MCF7 breast
OVCAR-4 ovarian = tested on: OVCAR-4 ovarian
HCT-15 colon = tested on: HCT-15 colon
SK-MEL-5 melanoma = tested on: SK-MEL-5 melanoma
SNB-19 CNS = tested on: SNB-19 CNS
M14 melanoma = tested on: M14 melanoma
CAKI-1 renal = tested on: CAKI-1 renal

## CCOC(=O)OC1C(Br)C2CCC1(C)C2(C)C (configuration not stated)
UACC-62 melanoma
  TGI: 32.1 µM
OVCAR-3 ovarian
  TGI: 28.8 µM
SW-620 colon
  TGI: 30.8 µM
U251 CNS
  TGI: 26.6 µM
SR leukemia
  TGI: 5.83 µM
UO-31 renal
  TGI: 24.6 µM
TK-10 renal
  TGI: 27.8 µM
HOP-92 NSCLC
  TGI: 27.6 µM
MDA-MB-231 breast
  TGI: 24.9 µM
NCI/ADR-RES ovarian
  TGI: 32.7 µM
ACHN renal
  TGI: 29.2 µM
MALME-3M melanoma
  TGI: 31.3 µM
DU-145 prostate
  TGI: 33 µM
MCF7 breast
  TGI: 31.3 µM
OVCAR-4 ovarian
  TGI: 25.1 µM
HCT-15 colon
  TGI: 27.5 µM
SK-MEL-5 melanoma
  TGI: 27.6 µM
SNB-19 CNS
  TGI: 28.3 µM
M14 melanoma
  TGI: 25.6 µM

## O=C(CC(C(=O)c1ccsc1)c1ccsc1)c1ccsc1 (configuration not stated)
UACC-62 melanoma
  TGI: > 100 µM
SW-620 colon
  TGI: > 100 µM
U251 CNS
  TGI: > 100 µM
CAKI-1 renal
  TGI: > 100 µM
SR leukemia
  TGI: > 100 µM
UO-31 renal
  TGI: > 100 µM
TK-10 renal
  TGI: > 100 µM
MDA-MB-231 breast
  TGI: > 100 µM
NCI/ADR-RES ovarian
  TGI: > 100 µM
ACHN renal
  TGI: > 100 µM
MALME-3M melanoma
  TGI: > 100 µM
DU-145 prostate
  TGI: > 100 µM
MCF7 breast
  TGI: > 100 µM
OVCAR-4 ovarian
  TGI: > 100 µM
HCT-15 colon
  TGI: > 100 µM
SK-MEL-5 melanoma
  TGI: > 100 µM
SNB-19 CNS
  TGI: > 100 µM
M14 melanoma
  TGI: > 100 µM

## COC(=O)c1c(O)ccc2c1c1c(n2Cc2ccccc2OC)C(=O)c2ccccc2C1=O
OVCAR-3 ovarian
  TGI: 23 µM
SW-620 colon
  TGI: 29.8 µM
U251 CNS
  TGI: 24.4 µM
CAKI-1 renal
  TGI: 37.9 µM
SR leukemia
  TGI: 3.18 µM
UO-31 renal
  TGI: 36.9 µM
TK-10 renal
  TGI: 65 µM
HOP-92 NSCLC
  TGI: 22.4 µM
MDA-MB-231 breast
  TGI: 54.9 µM
NCI/ADR-RES ovarian
  TGI: 39.2 µM
ACHN renal
  TGI: 29.7 µM
MALME-3M melanoma
  TGI: 40.5 µM
DU-145 prostate
  TGI: 30 µM
MCF7 breast
  TGI: 43.7 µM
OVCAR-4 ovarian
  TGI: 26.9 µM
HCT-15 colon
  TGI: 20 µM
SK-MEL-5 melanoma
  TGI: 25.8 µM
SNB-19 CNS
  TGI: 95.9 µM
M14 melanoma
  TGI: 22.6 µM

## CCOC(=O)NN(C(=O)OCC)C(=C(C1=CCCCC1)N1CCOCC1)N(NC(=O)OCC)C(=O)OCC
UACC-62 melanoma
  TGI: > 100 µM
OVCAR-3 ovarian
  TGI: > 100 µM
SW-620 colon
  TGI: > 100 µM
U251 CNS
  TGI: > 100 µM
CAKI-1 renal
  TGI: > 100 µM
SR leukemia
  TGI: > 100 µM
UO-31 renal
  TGI: > 100 µM
TK-10 renal
  TGI: > 100 µM
HOP-92 NSCLC
  TGI: > 100 µM
MDA-MB-231 breast
  TGI: > 100 µM
NCI/ADR-RES ovarian
  TGI: > 100 µM
ACHN renal
  TGI: > 100 µM
MALME-3M melanoma
  TGI: > 100 µM
DU-145 prostate
  TGI: > 100 µM
MCF7 breast
  TGI: > 100 µM
HCT-15 colon
  TGI: > 100 µM
SNB-19 CNS
  TGI: > 100 µM
M14 melanoma
  TGI: > 100 µM

## CN(C)C(=S)C(Cl)(c1ccccc1)c1ccccc1
UACC-62 melanoma
  TGI: > 100 µM
OVCAR-3 ovarian
  TGI: > 100 µM
SW-620 colon
  TGI: > 100 µM
U251 CNS
  TGI: > 100 µM
CAKI-1 renal
  TGI: > 100 µM
UO-31 renal
  TGI: > 100 µM
TK-10 renal
  TGI: > 100 µM
HOP-92 NSCLC
  TGI: > 100 µM
MDA-MB-231 breast
  TGI: > 100 µM
NCI/ADR-RES ovarian
  TGI: > 100 µM
ACHN renal
  TGI: > 100 µM
MALME-3M melanoma
  TGI: > 100 µM
DU-145 prostate
  TGI: > 100 µM
MCF7 breast
  TGI: > 100 µM
OVCAR-4 ovarian
  TGI: > 100 µM
HCT-15 colon
  TGI: > 100 µM
SK-MEL-5 melanoma
  TGI: > 100 µM
SNB-19 CNS
  TGI: > 100 µM
M14 melanoma
  TGI: > 100 µM

## Nc1cccc(OCC2CCCN3CCCCC23)c1 (configuration not stated)
UACC-62 melanoma
  TGI: 31.8 µM
OVCAR-3 ovarian
  TGI: 38.2 µM
SW-620 colon
  TGI: 39.4 µM
U251 CNS
  TGI: 44.6 µM
CAKI-1 renal
  TGI: 35.2 µM
UO-31 renal
  TGI: 75.2 µM
TK-10 renal
  TGI: 34.1 µM
HOP-92 NSCLC
  TGI: 87.4 µM
MDA-MB-231 breast
  TGI: 32.6 µM
NCI/ADR-RES ovarian
  TGI: 38.3 µM
ACHN renal
  TGI: 31.9 µM
MALME-3M melanoma
  TGI: 40.4 µM
DU-145 prostate
  TGI: 32.6 µM
MCF7 breast
  TGI: 37.1 µM
OVCAR-4 ovarian
  TGI: 47.2 µM
HCT-15 colon
  TGI: 31.5 µM
SK-MEL-5 melanoma
  TGI: 33.8 µM
SNB-19 CNS
  TGI: 32.8 µM
M14 melanoma
  TGI: 41.4 µM
